According to patent publication US20200345733A1, “Microbicidal Pyrimidine or Triazine Containing Compounds” (Janssen Sciences Ireland UC, priority 2002, published 2020):
Converted amounts (≈) assume the structure as drawn. Like-named read-outs stand apart in the source and are kept apart here.

Assays:
[1] = biological target: HIV-1 reverse transcriptase (Human immunodeficiency virus type 1 group M subtype B, UniProt P04585); test: Cell-free HIV-1 reverse transcriptase inhibition; assay type: biochemical; conditions: inhibits HIV-1 reverse transcriptase activity by 50%, cell-free assay
Experimental: Next to antiviral activity in CEM T cells, inhibition of HIV-1 reverse transriptase activity was measured in a cell-free assay, in which the 50% inhibitory concentration (IC50) of said compound is indicated (FIG. 1). The CEM system, using a lab T cell-line and the SI/X4labstrain HTLV-IIIb, was not directly relevant to sexual transmission, where primary T cells, dendritic cells and NSI/R5 viruses are involved. Therefore, we focussed on prevention of NSI/R5 HIV infection in MO-DC/CD4(+) T cell co-cultures.

[2] = system: primary HIV strains (X4, CCR5 and X41R5); test: Efficacy against primary HIV strains in relevant cell lines; assay type: cell-based
Hemophilus ducreyi = test: In vitro antibacterial activity, Hemophilus ducreyi; assay type: cell-based
Text: (§1) Compatibility with lactobacilli and normal vaginal flora is an important requirement for a vaginal microbicide. Activity on pathogens of sexual transmitted diseases is an additional advantage. In in vitro tests for antibacterial activity of compound B, the following susceptibilities were found: • 33 different Lactobacillus species isolated from recto-vaginal cultures of pregnant women were studied.

HIV Ba-L = test: Prevention of HIV Ba-L infection in MO-DC/CD4(+) T cell co-cultures (ELISA, secondary culture, PCR); assay type: cell-based; conditions: for HIV Antigen (number of positive wells) 2° Cult. / HIV proviral DNA (2° Cult.) / HIV Antigen (number of positive wells) 1° Cult.: cell-associated HIV Ba-L; for HIV Antigen (number of positive wells) 2° Cult.: 2° culture without drug, out of 6; for HIV proviral DNA (2° Cult.): PCR after secondary culture; for HIV Antigen (number of positive wells) 1° Cult.: continuous drug, out of 6 microcultures; for EC50: Human immunodeficiency virus 1, BAL, T-cell, MO-DC/CD4(+) T cells, read-out: EC50 (inhibiting 50% of HIV Ba-L replication)
Experimental: For experiments with CEM T cells, we used the lymphotropic SI/X4 HIV strain HTLV-IIIB, originally obtained from R. C. Gallo and M. Popovic (NIH, Bethesda, Md.). For experiments with monocyte-derived dendritic cells (MO-DC), the monotropic NSI/R5 HIV strain Ba-L, kindly provided by the NIH AIDS Research and Reference Reagent Program (Rockville, Md) was used. Ba-L stocks were grown and tittered on PHA/IL-2-stimulated peripheral blood mononuclear cells (PBMC) in complete medium, containing RPMI-1640 (Bio-Whittaker, Verviers, Belgium) and 10% bovine calf serum (Hyclone, Utah, US) (Peden K. Virological and Molecular Genetic Techniques for Studies of Established HIV Isolates. 1995, 21-45). The supernatant of these cultures were directly used as cell-free virus to infect MO-DC. To prepare cell-associated HIV Ba-L, non-stimulated PBMC (2×10^6 cells/ml) were incubated overnight with 10^−2 MOI (=multiplicity of infection) of HIV Ba-L in complete medium. Afterwards, cells were extensively washed, frozen in liquid nitrogen and thawed on the day of infection.
HIV antigen was detected using an in-house developed ELISA assay, of which the characteristics have been described (Beirnaert E, Willems B, Peeters M, Bouckaert A, Heyndrickx L, Zhong P et al. Design and Evaluation of an in-House HIV-1 (Group M and O), SIVmnd and SIVcpz Antigen Capture Assay. J Virol Methods 1998, 73: 65-70). The lower detection limit is about 200 pg/ml and the upper limit is about 25,000 pg/ml, as determined using a standard curve of Ba-L stock dilutions with known p24 content. The 50% Effective Concentration (EC50) was calculated by plotting HIV Ag concentration against drug concentration, followed by regression analysis on the linear part of the curve,
Cell-free HIV Ba-L was pre-incubated with a serial dilution of drug, ranging from 10,000 to 0.1 nM (final concentration), for 1 hour at 37° C. MO-DC were infected with drug-treated HIV at a multiplicity of infection (MOI) of 10^−3. After 2 hours (at 37° C.), MO-DC were washed (6×) and suspended at 4×10^5 cells/ml. 50 μl of MO-DC were dispensed in a 96-well cup, together with 50 μl of autologous CD4(+) T cells (2×10^6 cells/ml) and 100 μl of complete medium or 100 μl of drug (at the same concentration as for the pre-incubation). Half of the culture medium was refreshed twice weekly with complete medium, with or without drug. After 2 weeks of primary culture, supernatants were analysed by ELISA and cells were used for secondary cultures to check viral rescue. For experiments with cell-associated HIV, a similar set-up was used except that pre-incubated, cell-associated virus was washed before addition of MO-DC/CD4(+) T cells and remained present during the MO-DC/CD4(+) T cell co-culture.
To evaluate the effect of a 24-hours treatment, MO-DC and autologous CD4(+) T cells were suspended in complete medium at 4×10^4, resp. 2×10^5 cells/ml. Fifty μl of MO-DC and 50 μl of CD4(±) T cells were dispensed in a 96-well cup, together with 50 μl of cell-associated or cell-free virus (10^−3 MOI) and 50 μl of complete medium or 50 μl of a serial dilution of drug. After 24-hours (37° C., 5% CO2), cells were washed (3×) and incubated for 2 weeks. Half of the culture medium was refreshed twice weekly with complete medium (without drug). After 2 weeks of primary culture, supernatants were analysed by ELISA and cells were used for secondary cultures to check viral rescue.
PBMC were isolated from donor buffy coats and cultured for 2 days in complete medium supplemented with 5 ng/ml IL-2 (Immunosource, Zoersel, Belgium) and 0.5 μg/ml PHA (Murex, Dartford, England). After 2 weeks of primary culture, MO-DC/CD4(+) T cell co-cultures were washed (3×) and secondary cultures were set-up by adding 1×10^5 PHA/IL-2 activated PBMC per cup. Half of the culture medium was replaced every 3-4 days with IL-2 containing medium (without drug) and supernatants as well as cells were harvested after 2 additional weeks. Supernatants were tested for HIV-Ag in ELISA. […]

[3] = system: Neisseria gonorrhoea strains; test: In vitro antibacterial activity, Neisseria gonorrhoea; assay type: cell-based; conditions: some strains
Text: as §1

[4] = Continuous treatment, Cell-associated HIV
[5] = Continuous treatment, Cell-free HIV

## Cc1cc(C)c(Nc2ccnc(Nc3ccc(C#N)cc3)n2)c(C)c1 [compound B, 4-[[4-[(2,4,6-trimethylphenyl)amino]-2-pyrimidinyl]amino]benzonitrile]
[1]
  IC50: 24 nM
[2]
  Efficacy against primary HIV strains: good efficacy
Hemophilus ducreyi
  MIC50: 1 µg/mL (≈ 3.04 µM)
Hemophilus ducreyi; second value
  MIC50: 2 µg/mL (≈ 6.07 µM)
HIV Ba-L; 10 nM in 1° culture
  HIV Antigen (number of positive wells) 2° Cult.: 3
HIV Ba-L; 10 nM
  HIV proviral DNA (2° Cult.): 4.74 Log(number of DNA copies/10^6 cells)
  HIV Antigen (number of positive wells) 1° Cult.: 0
HIV Ba-L; 100 nM in 1° culture
  HIV Antigen (number of positive wells) 2° Cult.: 0
HIV Ba-L; 100 nM
  HIV proviral DNA (2° Cult.): Neg
  HIV Antigen (number of positive wells) 1° Cult.: 0
HIV Ba-L; 1,000 nM in 1° culture
  HIV Antigen (number of positive wells) 2° Cult.: 0
HIV Ba-L; 1,000 nM
  HIV proviral DNA (2° Cult.): Neg
  HIV Antigen (number of positive wells) 1° Cult.: 0
HIV Ba-L; 10,000 nM in 1° culture
  HIV Antigen (number of positive wells) 2° Cult.: 0
HIV Ba-L; 10,000 nM
  HIV proviral DNA (2° Cult.): Neg
  HIV Antigen (number of positive wells) 1° Cult.: 0
HIV Ba-L; 24 Hours treatment, Cell-associated HIV
  Conc. that prevents replicative HIV infection (ELISA and PCR after 2° culture): 1,000 nM
HIV Ba-L; 24 Hours treatment, Cell-free HIV
  Conc. that prevents replicative HIV infection (ELISA and PCR after 2° culture): 100 nM
HIV Ba-L; [4]
  Conc. that prevents replicative HIV infection (ELISA and PCR after 2° culture): 100 nM
  EC50: < 1 nM
HIV Ba-L; [5]
  Conc. that prevents replicative HIV infection (ELISA and PCR after 2° culture): 10 nM
  EC50: < 0.1 nM
HIV Ba-L; 24 h, 24 hours treatment, Cell-associated HIV
  EC50: 63 nM
HIV Ba-L; 24 h, 24 hours treatment, Cell-free HIV
  EC50: 42 nM
HIV Ba-L; cell-associated virus, continuous treatment, primary culture only
  Concentration that blocked infection in the primary cultures: 10 nM
[3]
  Inhibition of Neisseria gonorrhoea strains: inhibited at clinical relevant concentrations
